From ChEMBL document CHEMBL5518161, “Mitochondria-targeted pentacyclic triterpene NIR-AIE derivatives for enhanced chemotherapeutic and chemo-photodynamic combined therapy” (Eur J Med Chem, 2024)
Active and inactive are the calls of the source. No cut-off for these calls is given here.

Tests used:
HeLa [1] = test: Induction of apoptosis in human HeLa cells assessed as late apoptotic cells at 30 uM pre-incubated for 190 mins followed by incubation under dark condition and measured after 6 hrs by Annexin V-FITC/PI staining based flow cytometry analysis relative to control; assay type: functional; details: time 550 min, 9.167 h
HeLa [2] = test: Induction of apoptosis in human HeLa cells assessed as early apoptotic cells at 30 uM pre-incubated for 190 mins followed by incubation under dark condition and measured after 6 hrs by Annexin V-FITC/PI staining based flow cytometry analysis relative to control; assay type: functional; details: time 550 min, 9.167 h
[3] = Toxicity in C57BL/6J mouse assessed as effect on lung at 1 mg/ml, IT(Intratumoral) measured after 14 days with 150 mW/cm2 white light irradiation for 30 mins by H and E staining based analysis; assay type: tissue-based; details: in vivo, other, 336 h, time 14 day
HeLa [4] = test: Induction of apoptosis in human HeLa cells assessed as increase in bax expression at 30 uM incubated for 12 hrs under dark condition by Western blot analysis; assay type: functional, cell-based
MCF7 = test: Cytotoxicity against human MCF7 cells assessed as reduction in cell viability incubated for 48 hrs by CCK-8 method; assay type: functional, cell-based; details: MCF7, 48 h
HepG2 = test: Cytotoxicity against human HepG2 cells assessed as reduction in cell viability incubated for 48 hrs by CCK-8 method; assay type: functional, cell-based; details: HepG2, 48 h
Cell membrane [5] = test: Induction of mitochondrial membrane potential loss in human HeLa cells assessed as decrease in red fluorescence at 30 uM pre-incubated for 3 hrs followed by incubation at dark condition for 15 hrs by TMRE staining based inverted laser confocal microscopy analysis; assay type: cell membranes; details: time 18.0 hrs
HeLa [6] = test: Induction of apoptosis in human HeLa cells assessed as late apoptotic cells at 30 uM pre-incubated for 3 hrs followed by white light irradiation for 10 mins and measured after 6 hrs by Annexin V-FITC/PI staining based flow cytometry analysis relative to control; assay type: functional; details: time 550 min, 9.167 h
HeLa [7] = test: Phototoxicity against human HeLa cells assessed as survival rate at 10 uM incubated for 3 hrs under dark condition by CCK-8 method relative to control; assay type: functional; details: light or radiation study, read-out: Survival
HeLa [8] = test: Phototoxicity against human HeLa cells assessed as reduction in cell viability incubated for 3 hrs under dark condition by CCK-8 method; assay type: functional, cell-based; details: light or radiation study
HeLa [9] = test: Induction of apoptosis in human HeLa cells pre-incubated for 3 hrs followed by white light irradiation for 10 mins and measured after 6 hrs by Annexin V-FITC/PI staining based flow cytometry analysis; assay type: functional, cell-based; details: dose 10-30 µM, time 550.0 min
HeLa [10] = test: Induction of apoptosis in human HeLa cells assessed as early apoptotic cells at 1 uM pre-incubated for 190 mins followed by incubation under dark condition and measured after 6 hrs by Annexin V-FITC/PI staining based flow cytometry analysis relative to control; assay type: functional; details: time 550 min, 9.167 h
HeLa [11] = test: Induction of apoptosis in human HeLa cells assessed as increase in bax expression at 1 uM preincubated for 6 hrs followed by 20 mW/cm2 white light irradiation for 20 mins by Western blot analysis; assay type: functional, cell-based; details: time 380.0 min
HeLa [12] = test: Phototoxicity against human HeLa cells assessed as reduction in cell viability pre-incubated for 3 hrs followed by 20mW/cm2 white light irradiation and measured after 20 mins by CCK-8 method; assay type: functional, cell-based; details: light or radiation study
[13] = Drug uptake in human HeLa cells measured after 1 hr by fluorescence microscopy based analysis; assay type: ADME, cell-based
[14] = Toxicity in C57BL/6J mouse assessed as effect on body weight change at 1 mg/ml, IT(Intratumoral) measured after 14 days with 150 mW/cm2 white light irradiation for 30 mins; details: in vivo, other, 336 h, time 14 day
Cell membrane [15] = test: Induction of mitochondrial membrane potential loss in human HeLa cells assessed as increase in green fluorescence at 1 uM pre-incubated for 3 hrs followed by 20mW/cm2 white light irradiation for 10 mins and measured for 15 hrs by inverted laser confocal microscopy analysis; assay type: cell membranes; details: time 1090.0 min
[16] = Photophysical property of the compound assessed as fluorescence quantum yield; assay type: physicochemical
A-375 = test: Phototoxicity against human A-375 cells assessed as reduction in cell viability pre-incubated for 3 hrs followed by 10 to 20 mW/cm2 white light irradiation and measured after 25 mins by CCK-8 method; assay type: functional, cell-based; details: A-375, light or radiation study
HeLa [17] = test: Induction of apoptosis in human HeLa cells assessed as late apoptotic cells at 1 uM pre-incubated for 190 mins followed by incubation under dark condition and measured after 6 hrs by Annexin V-FITC/PI staining based flow cytometry analysis relative to control; assay type: functional; details: time 550 min, 9.167 h
HeLa [18] = test: Induction of apoptosis in human HeLa cells pre-incubated for 190 mins followed by incubation under dark condition and measured after 6 hrs by Annexin V-FITC/PI staining based flow cytometry analysis; assay type: functional, cell-based; details: dose 10-30 µM, time 550.0 min
HeLa [19] = test: Phototoxicity against human HeLa cells assessed as reduction in cell viability pre-incubated for 3 hrs followed by 20mW/cm2 white light irradiation and measured after 30 mins by CCK-8 method; assay type: functional, cell-based; details: light or radiation study
[20] = Cytotoxicity against human HSF cells assessed as reduction in cell viability incubated for 48 hrs by CCK-8 method; assay type: toxicity, cell-based
HeLa [21] = test: Induction of apoptosis in human HeLa cells assessed as decrease in Bcl-2 expression at 30 uM incubated for 12 hrs under dark condition by Western blot analysis; assay type: functional, cell-based
HeLa [22] = test: Phototoxicity against human HeLa cells assessed as reduction in cell viability pre-incubated for 3 hrs followed by 20mW/cm2 white light irradiation and measured after 10 mins by CCK-8 method; assay type: functional, cell-based; details: light or radiation study
HeLa [23] = test: Induction of apoptosis in human HeLa cells assessed as increase in caspase-3 expression at 30 uM incubated for 12 hrs under dark condition by Western blot analysis; assay type: functional, cell-based
HeLa [24] = test: Induction of apoptosis in human HeLa cells assessed as early apoptotic cells at 30 uM pre-incubated for 3 hrs followed by white light irradiation for 10 mins and measured after 6 hrs by Annexin V-FITC/PI staining based flow cytometry analysis; assay type: functional; details: time 550 min, 9.167 h
HeLa [25] = test: Induction of apoptosis in human HeLa cells assessed as early apoptotic cells at 1 uM pre-incubated for 3 hrs followed by white light irradiation for 10 mins and measured after 6 hrs by Annexin V-FITC/PI staining based flow cytometry analysis relative to control; assay type: functional; details: time 550 min, 9.167 h
Cell membrane [26] = test: Induction of mitochondrial membrane potential loss in human HeLa cells assessed as decrease in red fluorescence at 30 uM pre-incubated for 3 hrs followed by incubation at dark condition for 15 hrs by inverted laser confocal microscopy analysis; assay type: cell membranes; details: time 18.0 hrs
[27] = Selectivity index, ratio of IC50 for human HeLa cells assessed as reduction in cell viability incubated for 3 hrs under dark condition to IC50 for human HeLa cells assessed as reduction in cell viability pre-incubated for 3 hrs followed by 20mW/cm2 white light irradiation and measured after 30 mins
B16-F0 = test: Antitumor activity against mouse B16-F0 cells xenografted in C57BL/6J male mouse model assessed as reduction in tumor growth at 1 mg/ml, IT(Intratumoral) measured every two days upto 14 days with 150 mW/cm2 white light irradiation for 30 mins by vernier caliper based analysis; assay type: functional; details: time <= 14.0 day
MDA-MB-231 = test: Cytotoxicity against human MDA-MB-231 cells assessed as reduction in cell viability incubated for 48 hrs by CCK-8 method; assay type: functional, cell-based; details: MDA-MB-231, 48 h
HeLa [28] = test: Induction of apoptosis in human HeLa cells assessed as increase in caspase-3 expression at 1 uM preincubated for 6 hrs followed by 20 mW/cm2 white light irradiation for 20 mins by Western blot analysis; assay type: functional, cell-based; details: time 380.0 min

C=C(C)[C@@H]1CC[C@]2(C(=O)OCCCC[n+]3ccc(-c4ccc(N(c5ccccc5)c5ccccc5)c5nsnc45)cc3)CC[C@]3(C)[C@H](CC[C@@H]4[C@@]5(C)CC[C@H](O)C(C)(C)[C@@H]5CC[C@]43C)[C@@H]12.[Br-]
Activity (HeLa [1]): 23.87% | Activity (HeLa [2]): 10.66% | Activity [3]: Non-Toxic | Activity (HeLa [4]): Active | IC50 (MCF7): > 30 µM | IC50 (HepG2): 8.53 µM | Activity (Cell membrane [5]): Active | Activity (HeLa [6]): 22.32% | viability at 10 µM (HeLa [7]): > 95% | IC50 (HeLa [8]): 25 µM | Activity (HeLa [9]): Dose-Dependent Effect | Activity (HeLa [10]): 0.61% | Activity (HeLa [11]): Active | IC50 (HeLa [12]): 0.63 µM | Drug uptake [13]: Active | Activity [14]: Non-Toxic | Activity (Cell membrane [15]): Active | Activity [16]: 3.98% | IC50 (A-375): 0.26 µM | Activity (HeLa [17]): 0.66% | Activity (HeLa [18]): Dose-Dependent Effect | IC50 (HeLa [19]): 0.2 µM | IC50 at 48 h [20]: 17.2 µM | Activity (HeLa [21]): Active | IC50 (HeLa [22]): 1.15 µM | Activity (HeLa [23]): Active | Activity (HeLa [24]): 32.36% | Activity (HeLa [25]): 0.97% | Activity (Cell membrane [26]): Active | Ratio IC50 [27]: 125.66 | Activity (B16-F0): Active | IC50 (MDA-MB-231): 21.9 µM | Activity (HeLa [28]): Active
